Where two headings read alike, the source gives them in different places.
Columns and labels:
Experiment in all cases: Figure S2a opioid peptide screen on chemokine receptors
Parameters in all cases: dose or concentration left out as unconfirmed
ACKR4 = molecular target: T1, ACKR4 (Homo sapiens, UniProt Q9NPB9); conditions: read-out: ACKR4 activity, ctrl+ = 100, Figure S2a
T1 sequence (Q9NPB9 1-350): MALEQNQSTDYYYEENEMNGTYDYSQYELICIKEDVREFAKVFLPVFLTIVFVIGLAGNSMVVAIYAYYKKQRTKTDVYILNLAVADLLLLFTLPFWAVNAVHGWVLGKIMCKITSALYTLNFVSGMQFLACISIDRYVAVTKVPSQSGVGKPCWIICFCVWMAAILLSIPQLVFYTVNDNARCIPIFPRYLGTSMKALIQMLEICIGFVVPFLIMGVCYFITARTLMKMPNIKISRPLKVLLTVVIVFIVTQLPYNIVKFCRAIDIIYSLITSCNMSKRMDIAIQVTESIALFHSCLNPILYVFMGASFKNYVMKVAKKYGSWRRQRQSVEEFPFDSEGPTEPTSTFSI

CCR1 = molecular target: T2, CCR1 (Homo sapiens, UniProt P32246); assay type: cell-based
T2 construct: expressed in transfected cells
T2 sequence (P32246 1-355): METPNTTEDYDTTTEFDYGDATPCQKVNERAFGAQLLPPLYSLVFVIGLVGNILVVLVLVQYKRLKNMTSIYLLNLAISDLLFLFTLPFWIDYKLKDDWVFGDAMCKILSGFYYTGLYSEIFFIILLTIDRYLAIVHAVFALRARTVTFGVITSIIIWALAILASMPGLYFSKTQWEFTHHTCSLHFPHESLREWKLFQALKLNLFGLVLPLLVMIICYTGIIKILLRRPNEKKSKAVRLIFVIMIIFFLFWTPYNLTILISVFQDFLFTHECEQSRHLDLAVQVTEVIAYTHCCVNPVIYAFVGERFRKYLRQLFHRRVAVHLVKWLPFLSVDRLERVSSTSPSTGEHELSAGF

CCR6 = molecular target: T3, CCR6 (Homo sapiens, UniProt P51684); assay type: cell-based
T3 construct: expressed in transfected cells
T3 sequence (P51684 1-374): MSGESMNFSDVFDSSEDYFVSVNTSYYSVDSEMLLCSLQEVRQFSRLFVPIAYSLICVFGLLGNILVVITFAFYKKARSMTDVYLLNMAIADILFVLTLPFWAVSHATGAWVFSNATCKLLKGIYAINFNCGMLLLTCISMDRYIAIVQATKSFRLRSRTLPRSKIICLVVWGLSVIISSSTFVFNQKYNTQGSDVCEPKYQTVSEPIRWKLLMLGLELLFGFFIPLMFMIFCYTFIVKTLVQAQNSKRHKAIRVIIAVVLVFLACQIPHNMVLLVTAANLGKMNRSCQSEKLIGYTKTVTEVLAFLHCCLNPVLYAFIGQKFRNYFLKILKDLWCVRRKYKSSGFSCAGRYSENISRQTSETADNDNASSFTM

CXCR1 = molecular target: T4, CXCR1 (Homo sapiens, UniProt P25024); assay type: cell-based
T4 construct: expressed in transfected cells
T4 sequence (P25024 1-350): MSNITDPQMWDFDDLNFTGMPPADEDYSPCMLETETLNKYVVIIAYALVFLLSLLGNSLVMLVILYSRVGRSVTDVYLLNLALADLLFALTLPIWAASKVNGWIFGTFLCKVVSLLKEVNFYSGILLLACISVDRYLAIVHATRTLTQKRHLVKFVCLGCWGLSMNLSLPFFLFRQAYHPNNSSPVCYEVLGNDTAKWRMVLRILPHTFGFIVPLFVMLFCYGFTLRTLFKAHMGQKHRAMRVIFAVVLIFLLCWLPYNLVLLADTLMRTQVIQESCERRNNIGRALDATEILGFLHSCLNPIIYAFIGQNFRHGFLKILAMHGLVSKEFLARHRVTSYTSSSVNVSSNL

CCR8 = CCR8 (Homo sapiens, UniProt P51685); conditions: read-out: CCR8 activity, ctrl+ = 100, Figure S2a
Sequence of CCR8 (P51685 whole entry): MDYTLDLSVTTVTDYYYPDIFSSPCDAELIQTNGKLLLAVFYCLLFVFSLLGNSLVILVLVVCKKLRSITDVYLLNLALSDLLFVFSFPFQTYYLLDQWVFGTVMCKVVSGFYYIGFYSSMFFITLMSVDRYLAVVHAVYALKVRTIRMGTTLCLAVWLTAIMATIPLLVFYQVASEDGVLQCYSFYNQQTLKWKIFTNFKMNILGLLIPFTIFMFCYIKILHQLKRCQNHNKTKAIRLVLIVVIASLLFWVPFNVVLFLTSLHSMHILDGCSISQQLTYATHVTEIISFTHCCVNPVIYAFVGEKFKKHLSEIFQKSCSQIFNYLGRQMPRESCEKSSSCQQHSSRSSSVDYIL

XCR1 = molecular target: T5, XCR1 (Homo sapiens, UniProt P46094); assay type: cell-based
T5 construct: expressed in transfected cells
T5 sequence (P46094 1-333): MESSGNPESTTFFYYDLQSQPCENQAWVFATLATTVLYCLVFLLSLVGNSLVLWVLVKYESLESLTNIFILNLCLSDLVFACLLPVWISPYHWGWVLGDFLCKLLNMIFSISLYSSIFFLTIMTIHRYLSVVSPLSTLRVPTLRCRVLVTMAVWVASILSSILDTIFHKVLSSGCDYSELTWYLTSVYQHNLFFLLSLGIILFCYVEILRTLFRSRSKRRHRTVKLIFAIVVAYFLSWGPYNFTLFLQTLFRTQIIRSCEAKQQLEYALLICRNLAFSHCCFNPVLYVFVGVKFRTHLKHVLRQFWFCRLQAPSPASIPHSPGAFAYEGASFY

CCR3 = molecular target: T6, CCR3 (Homo sapiens, UniProt P51677); conditions: read-out: CCR3 activity, ctrl+ = 100, Figure S2a
T6 sequence (P51677 1-355): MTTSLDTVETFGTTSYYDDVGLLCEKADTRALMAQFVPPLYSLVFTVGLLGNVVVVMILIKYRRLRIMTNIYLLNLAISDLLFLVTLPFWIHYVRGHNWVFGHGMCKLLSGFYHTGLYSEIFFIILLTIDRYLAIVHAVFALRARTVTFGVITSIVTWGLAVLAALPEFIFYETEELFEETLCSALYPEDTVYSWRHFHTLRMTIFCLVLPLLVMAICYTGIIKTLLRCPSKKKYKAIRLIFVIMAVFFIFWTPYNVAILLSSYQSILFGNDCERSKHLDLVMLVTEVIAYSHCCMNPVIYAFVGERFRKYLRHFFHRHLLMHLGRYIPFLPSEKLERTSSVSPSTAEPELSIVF

[1] = replicate 1, read-out: CCR1 activity, ctrl+ = 100
[2] = replicate 2, read-out: CCR1 activity, ctrl+ = 100
[3] = replicate 3, read-out: CCR1 activity, ctrl+ = 100
[4] = replicate 1, read-out: CCR6 activity, ctrl+ = 100
[5] = replicate 2, read-out: CCR6 activity, ctrl+ = 100
[6] = replicate 3, read-out: CCR6 activity, ctrl+ = 100
[7] = replicate 1, read-out: CXCR1 activity, ctrl+ = 100
[8] = replicate 2, read-out: CXCR1 activity, ctrl+ = 100
[9] = replicate 3, read-out: CXCR1 activity, ctrl+ = 100
[10] = replicate 1, read-out: XCR1 activity, ctrl+ = 100
[11] = replicate 2, read-out: XCR1 activity, ctrl+ = 100
[12] = replicate 3, read-out: XCR1 activity, ctrl+ = 100

Compound CSCC[C@H](NC(=O)[C@H](Cc1ccccc1)NC(=O)CNC(=O)CNC(=O)[C@@H](N)Cc1ccc(O)cc1)C(=O)N[C@@H](CCCNC(=N)N)C(=O)N[C@@H](CCCNC(=N)N)C(=O)N[C@H](C(N)=O)C(C)C [Adrenorphin] has an activation (ACKR4; replicate 1) of -1.94%, an activation (ACKR4; replicate 2) of -1.88% and an activation (ACKR4; replicate 3) of -0.895%. The activation (CCR1; [1]) was -15%, the activation (CCR1; [2]) was 8.25% and the activation (CCR1; [3]) was -9.95%. For the same compound, the activation (CCR6; [4]) was -3.87%, the activation (CCR6; [5]) was 1.08% and the activation (CCR6; [6]) was -1.64%. For the same compound, the activation (CXCR1; [7]) was 0.451%, the activation (CXCR1; [8]) was 0.739% and the activation (CXCR1; [9]) was -0.427%. The activation (CCR8; replicate 1) was -17.4%, the activation (CCR8; replicate 2) was -15.7% and the activation (CCR8; replicate 3) was -4%. The activation (XCR1; [10]) was -2.07%, the activation (XCR1; [11]) was 2.59% and the activation (XCR1; [12]) was 12.1%. It also gave an activation (CCR3; replicate 1) of 10.9%, an activation (CCR3; replicate 2) of -10.8% and an activation (CCR3; replicate 3) of 23.6%.

Compound CSCC[C@H](NC(=O)[C@H](Cc1ccccc1)NC(=O)CNC(=O)CNC(=O)[C@@H](N)Cc1ccc(O)cc1)C(=O)N[C@@H](CCCNC(=N)N)C(=O)N[C@@H](CCCNC(=N)N)C(=O)N[C@H](C(=O)NCC(=O)N[C@@H](CCCNC(=N)N)C(=O)N1CCC[C@H]1C(=O)N[C@@H](CCC(=O)O)C(=O)N[C@@H](Cc1c[nH]c2ccccc12)C(=O)N[C@@H](Cc1c[nH]c2ccccc12)C(=O)N[C@@H](CCSC)C(=O)N[C@@H](CC(=O)O)C(=O)N[C@@H](Cc1ccc(O)cc1)C(=O)N[C@@H](CCC(N)=O)C(=O)N[C@@H](CCCCN)C(=O)N[C@@H](CCCNC(=N)N)C(=O)N[C@@H](Cc1ccc(O)cc1)C(=O)NCC(=O)O)C(C)C [BAM22] has an activation (ACKR4; replicate 1) of -4.56%, an activation (ACKR4; replicate 2) of -1.96% and an activation (ACKR4; replicate 3) of 5.51%. It also gave an activation (CCR1; [1]) of -7.62%, an activation (CCR1; [2]) of 9.7% and an activation (CCR1; [3]) of 10.5%. It also gave an activation (CCR6; [4]) of -2.07%, an activation (CCR6; [5]) of -2.99% and an activation (CCR6; [6]) of -1.86%. The activation (CXCR1; [7]) was 0.211%, the activation (CXCR1; [8]) was 0.0913% and the activation (CXCR1; [9]) was -0.539%. The activation (CCR8; replicate 1) was -18.7%, the activation (CCR8; replicate 2) was -21.3% and the activation (CCR8; replicate 3) was -4.1%. The activation (XCR1; [10]) was -2.25%, the activation (XCR1; [11]) was -4.24% and the activation (XCR1; [12]) was 8.51%. For the same compound, the activation (CCR3; replicate 1) was 5.68%, the activation (CCR3; replicate 2) was -4.83% and the activation (CCR3; replicate 3) was 17.9%.

In the case of CC[C@H](C)[C@H](NC(=O)[C@H](CCCNC(=N)N)NC(=O)[C@H](CCCNC(=N)N)NC(=O)[C@H](CC(C)C)NC(=O)[C@H](Cc1ccccc1)NC(=O)CNC(=O)CNC(=O)[C@@H](N)Cc1ccc(O)cc1)C(=O)N[C@@H](CCCNC(=N)N)C(=O)N1CCC[C@H]1C(=O)N[C@@H](CCCCN)C(=O)N[C@@H](CC(C)C)C(=O)N[C@@H](CCCCN)C(=O)O [Dynorphin 1-13], the activation (ACKR4; replicate 1) is reported as -2%, the activation (ACKR4; replicate 2) is reported as -4.85% and the activation (CCR1; [1]) is reported as -29%. For the same compound, the activation (CCR1; [2]) was -26.2%, the activation (CCR6; [4]) was -0.31% and the activation (CCR6; [5]) was -0.732%. For the same compound, the activation (CXCR1; [7]) was 0.218%, the activation (CXCR1; [8]) was -1.21% and the activation (CCR8; replicate 2) was -19.6%. The activation (XCR1; [10]) was -1.76%, the activation (XCR1; [11]) was -0.309% and the activation (CCR3; replicate 1) was 5.05%. For the same compound, the activation (CCR3; replicate 2) was -11.6%.

For CC[C@H](C)[C@H](NC(=O)[C@H](CCCNC(=N)N)NC(=O)[C@H](CCCNC(=N)N)NC(=O)[C@H](CC(C)C)NC(=O)[C@H](Cc1ccccc1)NC(=O)CNC(=O)CN)C(=O)N[C@@H](CCCNC(=N)N)C(=O)N1CCC[C@H]1C(=O)N[C@@H](CCCCN)C(=O)N[C@@H](CC(C)C)C(=O)N[C@@H](CCCCN)C(=O)N[C@@H](Cc1c[nH]c2ccccc12)C(=O)N[C@@H](CC(=O)O)C(=O)N[C@@H](CC(N)=O)C(=O)N[C@@H](CCC(N)=O)C(=O)O [Dynorphin 2-17], the activation (ACKR4; replicate 1) was -1.91%, the activation (ACKR4; replicate 2) was -4.71% and the activation (CCR1; [1]) was -21%. For the same compound, the activation (CCR1; [2]) was -15.3%, the activation (CCR6; [4]) was -0.438% and the activation (CCR6; [5]) was -1.06%. For the same compound, the activation (CXCR1; [7]) was 0.572%, the activation (CXCR1; [8]) was 0.136% and the activation (CCR8; replicate 1) was -6.57%. For the same compound, the activation (CCR8; replicate 2) was 0.623%, the activation (XCR1; [10]) was 3.87% and the activation (XCR1; [11]) was -3.46%. The activation (CCR3; replicate 1) was 12.7% and the activation (CCR3; replicate 2) was -19.1%.

In the case of CC[C@H](C)[C@H](NC(=O)[C@H](CCCNC(=N)N)NC(=O)[C@H](CCCNC(=N)N)NC(=O)[C@H](CC(C)C)NC(=O)[C@H](Cc1ccccc1)NC(=O)CNC(=O)CNC(=O)[C@@H](N)Cc1ccc(O)cc1)C(=O)N[C@@H](CCCNC(=N)N)C(=O)N1CCC[C@H]1C(=O)N[C@@H](CCCCN)C(=O)N[C@@H](CC(C)C)C(=O)N[C@@H](CCCCN)C(=O)N[C@@H](Cc1c[nH]c2ccccc12)C(=O)N[C@@H](CC(=O)O)C(=O)N[C@@H](CC(N)=O)C(=O)N[C@@H](CCC(N)=O)C(=O)O [Dynorphin A], the activation (ACKR4; replicate 1) is reported as -2.58%, the activation (ACKR4; replicate 2) is reported as -4.52% and the activation (ACKR4; replicate 3) is reported as 0.188%. For the same compound, the activation (CCR1; [1]) was -16.7%, the activation (CCR1; [2]) was 4.28% and the activation (CCR1; [3]) was 6.56%. It also gave an activation (CCR6; [4]) of -2.27%, an activation (CCR6; [5]) of -1.32% and an activation (CCR6; [6]) of -4.07%. For the same compound, the activation (CXCR1; [7]) was 0.562%, the activation (CXCR1; [8]) was 0.211% and the activation (CXCR1; [9]) was 0.227%. The activation (CCR8; replicate 1) was -0.0612%, the activation (CCR8; replicate 2) was -35.8% and the activation (CCR8; replicate 3) was -0.797%. It also gave an activation (XCR1; [10]) of 4.69%, an activation (XCR1; [11]) of 7.1% and an activation (XCR1; [12]) of 11%. It also gave an activation (CCR3; replicate 1) of 33.4%, an activation (CCR3; replicate 2) of -17% and an activation (CCR3; replicate 3) of 43.5%.
